In patent US20100240604A1, “PROTECTED NUCLEOTIDE ANALOGS” (Alios BioPharma, Inc., priority 2009, published 2010):

Key:
[1] = tested on: HCV RNA-replicating cell line, AVA5 (genotype 1b, subgenomic replicon); assay: HCV replicon assay: intracellular HCV RNA levels by blot hybridization; type: cell-based, HCV genotype 1b; settings: for EC50: 2-fold depression of HCV RNA relative to untreated cultures; for EC50 / EC90: normalized to β-actin RNA, daily treatment for three days, assessed at 72 hours; for EC90: 10-fold depression of HCV RNA relative to untreated cultures; for Antiviral activity (in words): results in Table 1
Description: (§1) Antiviral activity of the test compounds was assessed (Okuse, et al., Antivir. Res. (2005) 65:23) in the stably HCV RNA-replicating cell line, AVA5 (genotype 1b, subgenomic replicon, Blight, et al., Sci. (2000) 290:1972). Compounds were added to dividing cultures daily for three days. Cultures generally start the assay at 30-50% confluence and reach confluence during the last day of treatment. Intracellular HCV RNA levels and cytotoxicity were assessed 72 hours after treatment.
(§2) Quadruplicate cultures for HCV RNA levels and cytoxicity (on 96-well plates) were used. A total of 12 untreated control cultures, and triplicate cultures treated with α-interferon (concentrations of: 10 IU/mL, 3.3 IU/mL, 1.1 IU/mL and 0.37 IU/mL) and 2′C-Me-C (concentrations of: 30 μM, 10 μM, 3.3 μM and 1.1 μM) served as assay controls.
(§3) Intracellular HCV RNA levels were measured using a conventional blot hybridization method, in which HCV RNA levels are normalized to the levels of β-actin RNA in each individual culture (Okuse, et al., Antivir. Res. (2005) 65:23). Cytotoxicity was measured using an established neutral red dye uptake assay (Korba and Gerin, Antivir. Res. (1992) 19:55; Okuse, et al., Antivir. Res. (2005) 65:23). HCV RNA levels in the treated cultures are expressed as a percentage of the mean levels of RNA detected in untreated cultures. The absorbance of the internalized dye at […] (A510) was used for quantitative analysis.
(§4) Compounds were dissolved in 100% tissue culture grade DMSO (Sigma, Inc.) at 10 mM. Aliquots of test compounds sufficient for one daily treatment were made in individual tubes and all material was stored at −20° C. For the test, the compounds were suspended into culture medium at room temperature, and immediately added to the cell cultures. Compounds were analyzed separately in two groups with separate assay controls. […]
(§5) Values presented (±standard deviations [S.D.]) were calculated by linear regression analysis using data combined from all treated cultures. S.D. was calculated using the standard error of regression generated from the linear regression analyses (QuattroPro™). EC50 and EC90, drug concentrations at which a 2-fold, or a 10-fold depression of HCV RNA (relative to the average levels in untreated cultures), respectively, were observed; CC50, drug concentrations at which a 2-fold depression of neutral red dye uptake (relative to the average levels in untreated cultures) were observed.

AVA5 cell line = assay: Cytotoxicity by neutral red dye uptake assay in the HCV replicon cultures; type: cell-based; settings: 2-fold depression of neutral red dye uptake relative to untreated cultures; daily treatment for three days, assessed at 72 hours
Description: as §1, §2, §3, §4, §5

[2] = as above; type: cell-based; settings: human; 2-fold depression of neutral red dye uptake relative to untreated cultures; daily treatment for three days, assessed at 72 hours
Description: as §1, §2, §3, §4, §5

| Compound | EC50 [1] | EC90 [1] | CC50 (AVA5 cell line) | Antiviral activity (in words) [1] | EC50 ([1]; Hepatitis C virus, Ava5) | EC90 ([1]; Hepatitis C virus, Ava5) | CC50 at 72 h [2] |
| --- | --- | --- | --- | --- | --- | --- | --- |
| COC(=O)[C@H](C)NP(=O)(OC[C@H]1O[C@@H](n2ccc(N)nc2=O)[C@H](OC)[C@@H]1O)Oc1ccccc1 (stereo partly drawn) [Compound 13, 2′-O-Methylcytidine 5′-[O-phenyl-N-(S-2-methoxy-1-methyl-2-oxoethyl)]phosphoramidate] | > 100 µM | > 100 µM | > 100 µM | – | – | – | – |
| C[C@@]1(O)[C@H](O)[C@@H](CO)O[C@H]1n1ccc(N)nc1=O [Compound 12a, 2′-β-methylcytidine, reference compound] | 1.6 µM | 5.9 µM | > 100 µM | – | – | – | – |
| CCOC(=O)C(COC(C)=O)(COP(=O)(N[C@@H](C)C(=O)OC)OC[C@H]1O[C@@H](n2cnc(C(N)=O)n2)[C@H](O)[C@@H]1O)C(=O)OCC (stereo partly drawn) [Compound 10] | 8.7 µM | 54 µM | > 100 µM | showed activity | – | – | – |
| CCOC(=O)C(COC(C)=O)(COP(=O)(OC[C@H]1O[C@@H](n2cnc(C(N)=O)n2)C(O)C1O)OCC(COC(C)=O)(C(=O)OCC)C(=O)OCC)C(=O)OCC (stereo partly drawn) [Compound 11, Ribavirin 5′-bis[3-acetyloxy-2,2-bis(ethoxycarbonyl)propyl]phosphate] | – | – | – | showed activity | 1.6 ± 0.2 µM | 4.4 ± 0.4 µM | 9.7 ± 0.2 µM |
| COC(=O)[C@H](C)NP(=O)(OC[C@H]1O[C@@H](n2cnc(C(N)=O)n2)[C@@H](O)C1O)Oc1ccccc1 (stereo partly drawn) [Compound 9] | – | – | – | inactive | > 100 µM | > 100 µM | > 100 µM |
